Patent US12226396B2, “Gluconic acid derivatives for use in the treatment and/or prevention of microbial infections” (GEDEA BIOTECH AB, priority 2017, dated 2025)

Columns and labels:
C. glabrata = experiment: Mature biofilm cell survival, serial dilution plating on YPD; assay type: cell-based, Candida glabrata; conditions: 0.2 and 0.5 g/ml, 5 h of incubation, 37° C
Description: (§1) The plated cells were incubated for 24 h at 37° C. and visually analyzed. The cells from the mature biofilm treated with water were used as a control. […] At the concentrations of 0.2 and 0.5 g/ml after 5 h of incubation the cell viability was decreased by about 100 times for both C. albicans and C. glabrata.

Candida albicans = experiment: Biofilm formation in a model of in vivo conditions (pellet release in pH 3.71 buffer); assay type: cell-based
Description: (§2) Biofilm was measured in liquid culture as described [K. Scherz et al., G3 (Bethesda), 2014, 4, 1671-1680. I. Serrano-Fujarte et al. Biomed Res Int. 2015; 2015:783639] with some modifications. Prior the biofilm assay, yeast cultures were grown in liquid YPD medium for 24 hours until stationary phase (OD600 11-17)^2, cells were then pelleted by centrifugation (1699 g), washed with sterile water and cells were further inoculated into test biofilm medium (YNB (yeast nitrogen base without amino acids and ammonium sulphate) supplemented with 0.5% ammonium sulphate, 0.2% glucose and 100 mM L-proline pH7.0) at final concentration 0.2 OD600/ml and incubated in 96-well flat-bottom polystyrene microtiter plates (Sigma Aldrich, Corning® Costar® culture plates, CLS3596-50EA) for 72 hours at 37° C. thermostat. At defined time points crystal violet (HT901-8FOZ; Sigma Aldrich) was added to the media at the final concentration 0.05%, in addition total biomass was measured. After 24 hours of cells staining, plate wells were washed four times with 200 μl of water to remove planktonic cells, biofilms were then dried and dissolved in 200 μl of 96% ethanol. Total biomass and crystal violet biofilm staining measurements were performed at OD560 with FLUOstar OPTIMA plate reader, BMG LABTECH. Crystal violet biofilm measurements were normalized to the total biomass (OD560Biofilm/OD560 total biomass).
(§3) Pellet of lactonized/oligomerized gluconic acid (1.3 g, duplicate samples) were added to buffer solution of pH 3.71 (0.5 M KH2PO/ortho phosphoric acid, 10 mL) at 37° C. Samples (4 mL) were taken every hour (1, 2, 3, 4, 5, 6 and 24 h) and new buffer solution (4 mL) was added. The samples were diluted 50 times with biofilm medium (vide supra) and the amount of biofilm formation was measured after 24 h as described above. […]
(§4) Samples (4 mL) were taken at fixed time points (1, 2, 3, 4, 5, 6 and 24 h) and new buffer solution (4 mL) was added. The samples were diluted 50 times with biofilm medium (vide supra) and the amount of biofilm formation was measured after 24 h as described above. […]

Candida glabrata = experiment: as above; assay type: cell-based; conditions: pellet 2.5 g in pH 3.71 buffer at 37° C, sample after 1 h, diluted 50 times, biofilm after 24 h
Description: as §2, §3, §4

Escherichia coli K12 = experiment: E. coli biofilm study in M9 medium (crystal violet); assay type: cell-based
Description: The bacterial strain Escherichia coli K12 was used for the biofilm study. This strain was maintained on LB medium at 37° C. The biofilm was studied in synthetic medium M9 (×1 M9 minimal salts (Sigma M6030), 2 mM MgSO4, 0.1 mM CaCl2, and 0.2% glucose), which contained either phosphate buffer, citric acid, lactic acid, gluconic acid or glucono-O-lactone to obtain media with different pH (2.6-6.6).
The overnight culture of E. coli K12 (OD600˜5.0) was washed with sterile water and inoculated to the final concentration 0.2 OD/ml of M9 medium with different pH of different compounds. The biofilm development was studied in 96-well flat-bottom polystyrene microtiter plates (Sigma Aldrich, Corning® Costar® culture plates, CLS3596-50EA). The biofilm was stained with crystal violet.

C. albicans [1] = experiment: Mature biofilm cell survival, serial dilution plating on YPD; assay type: cell-based, Candida albicans
Description: as §1

[2] = test system: Lactobacillus iners CCUG 44025; experiment: MIC microdilution test; assay type: cell-based; conditions: CAMHB, anaerobic conditions, 120 hours
Description: Gardnerella vaginalis, Lactobacillus iners, and Lactobacillus crispatus were recovered by CCUG (Culture Collection of University of Gothenburg). Subculture plates were made for G. vaginalis on Chocolate-GL plates and Lactobacillus spp. on M.R.S. agar plates at 5% CO2, 36° C. The inoculums were prepared from the subculture plates. Colonies were inoculated to culture tubes with 5 ml test medium and vortexed 2 min with about 10 glass beads a 3 mm in diameter. Colonies were taken until the turbidity of the solution was OD475 of 0.4-0.5. The bacterial solutions were checked in light microscopy at ×40 with phase contrast to make sure that the cells were dispersed. Each bacterial suspension was diluted in its test medium, 1:100, to equal 1-3×10^6 CFU/ml. The microbial solutions were stored at 20° C. during the preparation of the inoculums
The test substance solution was prepared aseptically at 1 g/ml in sterile H2O. The first row of wells was filled with 100 μl substance and then 2 fold dilutions were done vertically in 8 steps.
The pH was also measured for all dilutions, n=1, pH=6.8-7.1

C. albicans [3] = experiment: Viability of mature biofilm, XTT assay; assay type: cell-based, Candida albicans; conditions: 48 h of incubation with GDA
Description: XXT is a colorimetric assay for quantification of cellular viability, and cytotoxicity. The assay is based on the cleavage of the tetrazolium salt XTT, a conversion that only occurs in viable cells. […] Then the cells were washed 2 times with PBS, after which the XTT reaction mixture was added. After 30 min the optical density measured at 485 nm.

## O=C1O[C@H](CO)[C@@H](O)[C@H](O)[C@H]1O [GDA, glucono-δ-lactone]
C. glabrata
  decrease of cell viability: about 100 times
Candida albicans; pellet 2.5 g in pH 3.71 buffer at 37° C, sample after 1 h, diluted 50 times, biofilm after 24 h
  Normalized biofilm (% of control), 1 h: 8.3 % of control
Candida albicans; pellet in pH 3.71 buffer, samples 1-24 h diluted 50 times
  duration of preventive effect on biofilm formation from pellet hydrolysis: ≥ 24 h
Candida glabrata
  Normalized biofilm (% of control), 1 h: 71 % of control
Escherichia coli K12; M9 medium, 24-48 hours
  effect on growth (biomass): inhibiting effect on the growth
Escherichia coli K12; pH 2.6, 24 h
  decrease of biofilm formation: 14.2 times
Escherichia coli K12; pH 2.6, 48 h
  decrease of biofilm formation: 30 times
C. albicans [1]; 0.2 and 0.5 g/ml, 5 h of incubation, 37° C
  decrease of cell viability: about 100 times
C. albicans [1]; 0.5 g/ml, 73 h of incubation
  decrease of cell viability: about 1000 times
[2]
  MIC (g/ml): 0.0078 g/ml
C. albicans [3]
  decrease in viability of mature biofilm (XTT): clearly seen
